One data set is described as follows: Plasma stability, human. The class given is in vitro ADME. Here is the method: Solubility, human (HLM) and mouse liver microsomal (MLM), and plasma stability studies were performed by Eurofins Cerep Panlabs and Eurofin Discovery Services (www.eurofins.com/PharmaDiscovery), while protein binding studies were performed by Sanford Burnham Prebys Chemical Biology & Drug Discovery Core using standard protocols.

The target in data set [1] is SH2 domain of pure recombinant Stat3 (Homo sapiens, UniProt P40763). The data set can be described thus: Stat3 fluorescence polarization (FP) assay. The data set is classed as binding. To be noted: 0–10 μM, 5-carboxyfluorescein-GpYLPQTV-NH2 probe. Here is the method:
Details are presented in Supplementary Information, “Methods”.
The Stat3:azetidine compound interaction was investigated further by focusing on how the compounds might interfere with Stat3 dimerization (Stat3:Stat3), which occurs via pTyr peptide:SH2 domain interaction. […]
confocal microscope (Stellaris 8-STED Super -resolution , Germany) with a 60x oil lens and images were processed by ImageJ software.
1.2.9. Fluorescence polarization assay (FP)
These studies were conducted as previously reported using the labeled phosphopeptide, 5-carboxyfluorescein GpYLPQTV-NH 2 (where pY represents phospho-Tyr) as probe and purified recombinant Stat3, with some modifications. […]
10 µM of unlabeled GpYLPQTV-NH 2 (positive control) or H182 at 30 °C for 30 min in the indicated assay buffer conditions, prior to the addition of the labeled probe at 10 nM final concentration and incubated for 30 min at room temperature, and thereafter reading the FP signal at 10, 30, and 60 min using the SpectraMax ID5 (Molecular Devices, San Jose, CA), with the set gain adjustment at 35 mP. In some cases, the recombinant His-Stat3 was pre-incubated with the unlabeled GpYLPQTV-NH 2 or H182 at 0-10 µM for 10 min or at 0-50 µM for 30 min prior to incubation with the labeled probe, and thereafter reading the FP signal at 10, 30, or 60 min using the SpectraMax ID5, with the set gain adjustment at 35 mP.
1.2.10. […]

A further data set has as its target T1, pYStat3C426A (Homo sapiens, UniProt P40763, C426A).
T1 construct: made in house; host or cells: E. coli BL21(DE3) TKB1 (inducible tyrosine kinase)
The data set can be described thus: EMSA with purified mutant pYStat3C426A. The data set is classed as biochemical. An excerpt: This construct was used to generate the mutants, Stat3C328A, Stat3C426A, Stat3C468A, and Stat3C542S, as described in detail in Supplementary Information “Methods”.
The expression of un-phosphorylated and tyrosine phosphorylated His-tagged recombinant wtStat3 and mutant Stat3 proteins in BL21 (DE3) bacterial cells is described in detail in Supplementary Information “Methods”.
Given the MS data, we conducted site-directed mutagenesis analysis for the effects of Cys mutations (Cys-to-Ala or Cys-to-Ser mutations) on the inhibitory activities or potencies of the compounds. […] Purified, phosphorylated wild-type (wt)Stat3, and phosphorylated mutants, Stat3C328A, Stat3C426A, Stat3C468A, and Stat3C542S protein samples of equal amounts were pre-incubated with or without 3 μM H182 for 30 min at room temperature prior to incubation with the radiolabeled hSIE probe that binds Stat3 and subjecting to EMSA analysis. […] Focusing on the C426 and C468, we next conducted dose-response studies for effects of H182 on Stat3C426A and Stat3C468A. […] Equal proteins used in the DNA-binding assay/EMSA analysis are shown by SDS-PAGE Coomassie staining (Fig. 3B, lower). […]
In another case, the nuclear extract was pre-incubated with the radiolabeled probe for 30 min at 30 °C prior to incubation with increasing concentration of H182 at room temperature for 30 min and subjecting to EMSA analysis. Bands corresponding to Stats DNA- binding activities were scanned and quantified using ImageJ and plotted as a percentage of control (vehicle) against the concentration of the inhibitor, from which the IC50 values were derived . […]
These studies were performed as previously reported using the v-Src -transformed NIH3T3/v-Src fibroblasts [1 -5] . […] Luciferase activity was normalized to total protein concentration of cell lysate, which was determined by Bradford assay (Bio-Rad, Hercules, CA) . […]
In general terms: A gel shift assay detects complexes by their altered migration in electrophoresis.

Each structure is given as a SMILES string.

T1 sequence (P40763 127-711 C426A): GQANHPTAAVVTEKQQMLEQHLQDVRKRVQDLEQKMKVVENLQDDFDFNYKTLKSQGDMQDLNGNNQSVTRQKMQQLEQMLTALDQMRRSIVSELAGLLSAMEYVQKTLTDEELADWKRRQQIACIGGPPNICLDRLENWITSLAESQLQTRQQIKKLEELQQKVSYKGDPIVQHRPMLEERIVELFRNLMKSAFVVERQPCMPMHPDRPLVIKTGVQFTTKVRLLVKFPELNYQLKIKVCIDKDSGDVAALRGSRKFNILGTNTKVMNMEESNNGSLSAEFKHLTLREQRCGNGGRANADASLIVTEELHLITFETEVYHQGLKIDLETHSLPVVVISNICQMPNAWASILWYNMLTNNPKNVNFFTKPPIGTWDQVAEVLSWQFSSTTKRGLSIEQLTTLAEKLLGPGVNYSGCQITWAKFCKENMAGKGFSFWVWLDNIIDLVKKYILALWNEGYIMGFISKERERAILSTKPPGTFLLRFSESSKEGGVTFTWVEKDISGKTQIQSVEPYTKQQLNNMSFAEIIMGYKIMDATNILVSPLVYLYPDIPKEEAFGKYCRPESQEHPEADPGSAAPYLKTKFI
SH2 domain of pure recombinant Stat3, sequence (P40763 whole entry, the tested form may be a part): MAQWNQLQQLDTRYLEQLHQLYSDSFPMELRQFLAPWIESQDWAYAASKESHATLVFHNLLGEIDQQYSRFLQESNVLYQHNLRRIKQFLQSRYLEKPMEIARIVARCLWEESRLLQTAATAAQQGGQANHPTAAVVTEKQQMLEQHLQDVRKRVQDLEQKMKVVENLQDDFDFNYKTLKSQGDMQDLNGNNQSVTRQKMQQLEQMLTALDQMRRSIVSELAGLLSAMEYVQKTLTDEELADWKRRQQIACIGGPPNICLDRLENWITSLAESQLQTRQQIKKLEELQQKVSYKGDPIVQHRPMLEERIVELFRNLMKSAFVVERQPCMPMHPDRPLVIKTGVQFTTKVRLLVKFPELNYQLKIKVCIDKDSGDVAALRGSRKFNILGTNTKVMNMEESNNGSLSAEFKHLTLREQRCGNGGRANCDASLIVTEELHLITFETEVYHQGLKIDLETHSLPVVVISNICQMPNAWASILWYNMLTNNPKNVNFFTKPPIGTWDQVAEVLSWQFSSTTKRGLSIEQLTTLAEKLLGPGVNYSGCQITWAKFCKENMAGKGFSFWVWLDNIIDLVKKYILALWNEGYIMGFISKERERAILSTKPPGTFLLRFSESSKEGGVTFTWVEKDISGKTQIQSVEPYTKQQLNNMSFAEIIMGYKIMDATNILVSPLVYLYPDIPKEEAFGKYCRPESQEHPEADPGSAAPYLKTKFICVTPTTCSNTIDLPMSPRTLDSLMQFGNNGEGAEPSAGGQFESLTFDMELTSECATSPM

Broadly, the fraction remaining is what is left of the initial amount, in per cent. One may read the IC50 as the midpoint of a concentration-inhibition curve. In the data set “Plasma stability, human” (1 h), `O=C([C@H]1CCN1S(=O)(=O)c1c(F)c(F)c(F)c(F)c1F)N(Cc1ccc(C2CCCCC2)cn1)c1ccc2c(=O)[nH]ncc2c1` [Compound H182] showed a share remaining at 1 h of 53%. The compound further registered a fraction remaining at 2 h in the data set “Plasma stability, human” (2 h) of 10%. Besides, the “Effect on FP signal” value in data set [1] is “fluctuations of the FP signal”. In addition, at pYStat3C426A (3 μM H182, 30 min), the “Effect on DNA-binding activity of pYStat3C426A” value is given as “unaffected”. At pYStat3C426A (10 μM H182), the “Effect on pYStat3C426A activity” value is “near complete inhibition”. The IC50 against pYStat3C426A (EMSA, 0–50 μM H182, 30 min) was 6 µM.

The values above are taken from PMC9867837 (Cancer letters, 2022).
